Reference: ChEMBL document CHEMBL1201862, “PubChem BioAssay data set” (2004)
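In this assay, cells in 96-well plates receive the compound at five concentrations for 48 hours. Endpoints are linearly interpolated between the surrounding concentrations. GI50 marks 50% less growth.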 Active and inactive are the calls of the source. Cut-off read from the data, not from the text of the source: active = GI50 up to about 1.1 µM and inactive = higher.

Legend:
Experiment in all cases: growth of human tumour cells (NCI), 48 h
[1] = tested on: 786-0
[2] = tested on: A498
[3] = tested on: A549
[4] = tested on: CAKI-1
[5] = tested on: HCC 2998
[6] = tested on: HCT-15
[7] = tested on: HL-60
[8] = tested on: M14
[9] = tested on: MCF7
[10] = tested on: MDA-MB-435
[11] = tested on: NCI-H23
[12] = tested on: NCI-H460
[13] = tested on: OVCAR-8
[14] = tested on: SK-MEL-28
[15] = tested on: SN12C
[16] = tested on: SNB-19
[17] = tested on: SR
[18] = tested on: TK-10
[19] = tested on: U-251
[20] = tested on: UACC-62

| SMILES | GI50 [1] | GI50 [2] | GI50 [3] | GI50 [4] | GI50 [5] | GI50 [6] [µM] | GI50 [7] | GI50 [8] | GI50 [9] | GI50 [10] | GI50 [11] | GI50 [12] | GI50 [13] | GI50 [14] | GI50 [15] | GI50 [16] | GI50 [17] | GI50 [18] | GI50 [19] | GI50 [20] |
| --- | --- | --- | --- | --- | --- | --- | --- | --- | --- | --- | --- | --- | --- | --- | --- | --- | --- | --- | --- | --- |
| Cc1ccc(/N=N/c2ccc(O)c(CN(C)C)c2)cc1C | 34.4 µM (inactive) | 22.3 µM (inactive) | 34.7 µM (inactive) | 25.6 µM (inactive) | 16.4 µM (inactive) | 17.3 | 10.1 µM (inactive) | 33 µM (inactive) | 35.3 µM (inactive) | 18.7 µM (inactive) | 70.3 µM (inactive) | 19.1 µM (inactive) | 37.2 µM (inactive) | 5.47 µM (inactive) | > 100 µM (inactive) | 34.2 µM (inactive) | 27.2 µM (inactive) | 16.1 µM (inactive) | 34.6 µM (inactive) | 17.1 µM (inactive) |
| COC(=O)C(=O)C(C(=O)C(=O)Nc1ccc(C)c(C)c1)c1nc2ccc([N+](=O)[O-])cc2nc1O (stereo not given) | > 100 µM (inactive) | > 100 µM (inactive) | > 100 µM (inactive) | > 100 µM (inactive) | > 100 µM (inactive) | > 100 | > 100 µM (inactive) | > 100 µM (inactive) | > 100 µM (inactive) | > 100 µM (inactive) | > 100 µM (inactive) | > 100 µM (inactive) | > 100 µM (inactive) | > 100 µM (inactive) | > 100 µM (inactive) | 18.5 µM (inactive) | > 100 µM (inactive) | > 100 µM (inactive) | > 100 µM (inactive) | > 100 µM (inactive) |
| O=C1NC(=O)C2=C1CCC2O (stereo not given) | > 100 µM (inactive) | > 100 µM (inactive) | > 100 µM (inactive) | > 100 µM (inactive) | > 100 µM (inactive) | > 100 | > 100 µM (inactive) | > 100 µM (inactive) | > 100 µM (inactive) | > 100 µM (inactive) | > 100 µM (inactive) | > 100 µM (inactive) | > 100 µM (inactive) | > 100 µM (inactive) | > 100 µM (inactive) | > 100 µM (inactive) | > 100 µM (inactive) | > 100 µM (inactive) | > 100 µM (inactive) | > 100 µM (inactive) |
